Measurements published in PubChem BioAssay AID1963442 (Molecular Pharmacology Branch, DTP, NCI, 2024).
Several values for one entry are separate records, joined by “and”; a condition that tells them apart may be missing. Equal entries are not always repeated.

System: MPNST complex spheroid with HUVEC/MSC, growth, % test/control
Test: Anticancer human tumor MPNST cell line growth inhibition [Asc];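 further: compounds left on spheroids for seven days before reading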
Conditions: for viability, T/C: stronger effect = lower value
Summary of the method: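 Spheroid model: tumor line + HUVEC + hMSC. Single agents and combinations; top conc. at/near clinical Cmax (10 microM if undetermined), half-log dilutions. DMSO stocks at 800-fold test concentration.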

In the case of `O=C(c1ccc(F)c(F)c1Nc1ccc(I)cc1F)N1CC(O)([C@@H]2CCCCN2)C1`, the viability, T/C (compound 0.00316 µM) is reported as 100% and 84.6% and 73.2%, the viability, T/C (compound 0.01 µM) is reported as 60.5% and 110% and 78.5% and the viability, T/C (compound 0.0316 µM) is reported as 58.9% and 123% and 126%. For the same compound, the viability, T/C (compound 0.1 µM) was 65.1% and 103% and 84.6%, the viability, T/C (compound 0.316 µM) was 67.3% and 72% and 85.4% and the viability, T/C (compound 1 µM) was 13.1% and 29.3% and 32.3%. The IC50 (curve of compound) was 0.448 µM and 0.572 µM and 0.682 µM.

With `COc1c(OCCCN2CCOCC2)ccc2c3n(c(=NC(=O)c4cnc(N)nc4)nc12)CCN3` the viability, T/C (compound 0.00316 µM) was 84.8% and 70.3% and 54.3%, the viability, T/C (compound 0.01 µM) was 97% and 81% and 50.6% and the viability, T/C (compound 0.0316 µM) was 70.7% and 52.5% and 38.8%. The viability, T/C (compound 0.1 µM) was 39.8% and 39.5% and 13.7%, the viability, T/C (compound 0.316 µM) was 31.4% and 24.9% and 9.45% and the viability, T/C (compound 1 µM) was 24% and 18.9% and 5.21%. For the same compound, the IC50 (curve of compound) was 0.0687 µM and 0.0495 µM and 0.0115 µM.

`O=C(c1cc(Cc2n[nH]c(=O)c3ccccc23)ccc1F)N1CCN(C(=O)C2CC2)CC1` was tested, and the viability, T/C (compound 0.0316 µM) was 89.3% and 114% and 79.2%, the viability, T/C (compound 0.1 µM) was 103% and 78.6% and 69.5% and the viability, T/C (compound 0.316 µM) was 109% and 60.3% and 96.9%. The viability, T/C (compound 1 µM) was 83.9% and 63.7% and 82.7%, the viability, T/C (compound 3.16 µM) was 71.8% and 70.9% and 40.7% and the viability, T/C (compound 10 µM) was 77.1% and 48.1% and 34.8%. The IC50 (curve of compound) was > 10 µM and 2.44 µM.

`NC1CCC(NC2CC2c2ccccc2)CC1` (stereo unspecified) + CCN1C(C(=O)NC23CCC(C(=O)O)(CC2)CC3)C(c2cccc(Cl)c2F)C2(C(=O)Nc3cc(Cl)ccc32)C12CCCCC2 was tested, and the IC50 (curve of first compound, second compound 0.03 µM) was > 0.1 µM, the IC50 (curve of first compound, second compound 0.0949 µM) was > 0.1 µM and the IC50 (curve of first compound, second compound 0.3 µM) was > 0.1 µM. The IC50 (curve of first compound, second compound 0.949 µM) was > 0.1 µM, the IC50 (curve of first compound, second compound 3 µM) was > 0.1 µM and the viability, T/C (second compound 0.03 µM, first compound 0.000316 µM) was 79.1%. For the same compound, the viability, T/C (second compound 0.03 µM, first compound 0.001 µM) was 72.2%, the viability, T/C (second compound 0.03 µM, first compound 0.00316 µM) was 67.4% and the viability, T/C (second compound 0.03 µM, first compound 0.01 µM) was 74.8%. The viability, T/C (second compound 0.03 µM, first compound 0.0316 µM) was 87%, the viability, T/C (second compound 0.03 µM, first compound 0.1 µM) was 82.7% and the viability, T/C (second compound 0.0949 µM, first compound 0.000316 µM) was 98.7%. It also gave a viability, T/C (second compound 0.0949 µM, first compound 0.001 µM) of 87.6%, a viability, T/C (second compound 0.0949 µM, first compound 0.00316 µM) of 92.6% and a viability, T/C (second compound 0.0949 µM, first compound 0.01 µM) of 91.5%. The viability, T/C (second compound 0.0949 µM, first compound 0.0316 µM) was 63.7%, the viability, T/C (second compound 0.0949 µM, first compound 0.1 µM) was 82.7% and the viability, T/C (second compound 0.3 µM, first compound 0.000316 µM) was 81.7%. It also gave a viability, T/C (second compound 0.3 µM, first compound 0.001 µM) of 85.7%, a viability, T/C (second compound 0.3 µM, first compound 0.00316 µM) of 83.8% and a viability, T/C (second compound 0.3 µM, first compound 0.01 µM) of 90.8%. The viability, T/C (second compound 0.3 µM, first compound 0.0316 µM) was 69.5%, the viability, T/C (second compound 0.3 µM, first compound 0.1 µM) was 75% and the viability, T/C (second compound 0.949 µM, first compound 0.000316 µM) was 87.9%. The viability, T/C (second compound 0.949 µM, first compound 0.001 µM) was 87.7%, the viability, T/C (second compound 0.949 µM, first compound 0.00316 µM) was 98% and the viability, T/C (second compound 0.949 µM, first compound 0.01 µM) was 74.2%. The viability, T/C (second compound 0.949 µM, first compound 0.0316 µM) was 72.5%, the viability, T/C (second compound 0.949 µM, first compound 0.1 µM) was 66.7% and the viability, T/C (second compound 3 µM, first compound 0.000316 µM) was 83.9%. It also gave a viability, T/C (second compound 3 µM, first compound 0.001 µM) of 81.4%, a viability, T/C (second compound 3 µM, first compound 0.00316 µM) of 60.3% and a viability, T/C (second compound 3 µM, first compound 0.01 µM) of 59.8%. The viability, T/C (second compound 3 µM, first compound 0.0316 µM) was 68.9% and the viability, T/C (second compound 3 µM, first compound 0.1 µM) was 65.8%.
